The source of these data is US12103919B2, “3-(5-oxy)-1-oxoisoindolin-2-yl)piperidine-2,6-dione derivatives and uses thereof” (NOVARTIS AG, priority 2021, dated 2024).

Where two headings read alike, the source gives them in different places.

This assay concerns the target T1, WIZ (Homo sapiens, UniProt O95785+Q96SW2).
T1 construct: expressed in transfected cells
Description: Quantification of WIZ protein levels in HiBit tag fusion protein assay (293T cells). The arrangement: Dmax: dose or concentration left out as unconfirmed. Format: cell-based. The procedure, abridged:
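293T cells stably carrying a single-copy HiBit-WIZ fusion were exposed to compounds for about 18 hours at 37° C., top concentration 25 μM, 10-point 5-fold series. Lysates were complemented with LgBit and luminescence was read. Amax is the DMSO-normalized, curve-fitted percentage of WIZ-HiBit remaining at 25 uM.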

[1] abbreviates: HEK-293T; DMSO-normalized, curve-fitted percentage of WIZ-HiBit remaining at 25 uM; read-out: WIZ Amax.
The mark [2] stands for this setting: HEK-293T; at 25 uM, 100 − Amax; read-out: % degradation of WIZ (100 − Amax).
Setting [3] is: WIZ HiBit assay in 293T cells, about 18 hours, 10-point 5-fold dilution, top 25 μM; read-out: WIZ AC50.
[4] abbreviates: HEK-293T, read-out: % degradation of WIZ (100 − Amax).

T1 sequence (O95785 whole entry): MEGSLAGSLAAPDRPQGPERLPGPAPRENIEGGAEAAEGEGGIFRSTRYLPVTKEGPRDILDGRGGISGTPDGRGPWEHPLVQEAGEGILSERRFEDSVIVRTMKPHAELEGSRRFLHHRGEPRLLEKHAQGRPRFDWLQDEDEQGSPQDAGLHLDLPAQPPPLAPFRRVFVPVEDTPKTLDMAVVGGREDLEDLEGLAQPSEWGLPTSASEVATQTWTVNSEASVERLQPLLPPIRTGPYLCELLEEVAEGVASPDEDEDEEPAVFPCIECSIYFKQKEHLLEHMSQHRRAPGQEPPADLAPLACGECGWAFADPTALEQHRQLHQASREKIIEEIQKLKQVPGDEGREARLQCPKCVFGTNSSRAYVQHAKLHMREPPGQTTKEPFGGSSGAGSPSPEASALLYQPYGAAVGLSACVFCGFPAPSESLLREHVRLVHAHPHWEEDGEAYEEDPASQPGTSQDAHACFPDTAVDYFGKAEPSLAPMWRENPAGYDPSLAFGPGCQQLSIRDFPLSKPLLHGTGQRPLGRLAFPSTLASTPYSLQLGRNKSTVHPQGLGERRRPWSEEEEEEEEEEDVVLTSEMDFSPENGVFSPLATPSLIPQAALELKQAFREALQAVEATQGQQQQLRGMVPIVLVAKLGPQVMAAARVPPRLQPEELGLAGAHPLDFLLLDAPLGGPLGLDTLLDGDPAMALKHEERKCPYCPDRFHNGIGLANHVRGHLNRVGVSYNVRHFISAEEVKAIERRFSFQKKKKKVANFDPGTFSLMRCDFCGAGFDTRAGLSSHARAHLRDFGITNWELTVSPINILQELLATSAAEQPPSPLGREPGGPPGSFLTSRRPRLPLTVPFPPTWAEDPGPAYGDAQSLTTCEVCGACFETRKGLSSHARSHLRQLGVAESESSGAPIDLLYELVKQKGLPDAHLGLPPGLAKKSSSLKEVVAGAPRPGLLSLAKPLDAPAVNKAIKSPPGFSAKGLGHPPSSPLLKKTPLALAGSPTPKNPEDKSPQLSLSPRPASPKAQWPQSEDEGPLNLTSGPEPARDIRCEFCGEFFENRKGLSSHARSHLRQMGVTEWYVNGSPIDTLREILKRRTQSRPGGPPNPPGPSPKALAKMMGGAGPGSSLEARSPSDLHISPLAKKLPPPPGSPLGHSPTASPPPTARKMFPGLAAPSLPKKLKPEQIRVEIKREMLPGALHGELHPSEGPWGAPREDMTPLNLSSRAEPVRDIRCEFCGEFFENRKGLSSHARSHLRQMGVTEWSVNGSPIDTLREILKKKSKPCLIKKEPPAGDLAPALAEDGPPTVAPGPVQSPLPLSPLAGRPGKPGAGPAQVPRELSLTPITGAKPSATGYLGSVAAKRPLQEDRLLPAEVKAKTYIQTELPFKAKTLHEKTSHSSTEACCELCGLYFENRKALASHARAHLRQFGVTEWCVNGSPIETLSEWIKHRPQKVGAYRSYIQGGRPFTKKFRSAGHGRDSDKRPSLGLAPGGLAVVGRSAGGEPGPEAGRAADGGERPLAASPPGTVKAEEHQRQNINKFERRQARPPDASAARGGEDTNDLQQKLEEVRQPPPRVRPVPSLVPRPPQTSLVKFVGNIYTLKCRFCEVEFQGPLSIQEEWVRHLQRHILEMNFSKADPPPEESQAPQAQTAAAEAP
T1 sequence (Q96SW2 whole entry): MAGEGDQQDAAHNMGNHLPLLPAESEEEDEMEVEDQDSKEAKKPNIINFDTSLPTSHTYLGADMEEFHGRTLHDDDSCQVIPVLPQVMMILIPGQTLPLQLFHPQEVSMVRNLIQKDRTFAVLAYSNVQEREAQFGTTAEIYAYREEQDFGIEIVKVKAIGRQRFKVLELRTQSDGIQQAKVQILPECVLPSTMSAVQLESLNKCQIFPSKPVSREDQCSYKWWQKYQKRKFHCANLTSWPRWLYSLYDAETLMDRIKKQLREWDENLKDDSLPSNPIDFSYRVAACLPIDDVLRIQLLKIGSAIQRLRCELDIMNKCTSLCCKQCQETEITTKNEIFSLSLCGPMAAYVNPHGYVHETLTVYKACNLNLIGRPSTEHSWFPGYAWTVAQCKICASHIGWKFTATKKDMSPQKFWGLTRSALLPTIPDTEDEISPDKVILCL
T1 sequence (Q16531 whole entry partner): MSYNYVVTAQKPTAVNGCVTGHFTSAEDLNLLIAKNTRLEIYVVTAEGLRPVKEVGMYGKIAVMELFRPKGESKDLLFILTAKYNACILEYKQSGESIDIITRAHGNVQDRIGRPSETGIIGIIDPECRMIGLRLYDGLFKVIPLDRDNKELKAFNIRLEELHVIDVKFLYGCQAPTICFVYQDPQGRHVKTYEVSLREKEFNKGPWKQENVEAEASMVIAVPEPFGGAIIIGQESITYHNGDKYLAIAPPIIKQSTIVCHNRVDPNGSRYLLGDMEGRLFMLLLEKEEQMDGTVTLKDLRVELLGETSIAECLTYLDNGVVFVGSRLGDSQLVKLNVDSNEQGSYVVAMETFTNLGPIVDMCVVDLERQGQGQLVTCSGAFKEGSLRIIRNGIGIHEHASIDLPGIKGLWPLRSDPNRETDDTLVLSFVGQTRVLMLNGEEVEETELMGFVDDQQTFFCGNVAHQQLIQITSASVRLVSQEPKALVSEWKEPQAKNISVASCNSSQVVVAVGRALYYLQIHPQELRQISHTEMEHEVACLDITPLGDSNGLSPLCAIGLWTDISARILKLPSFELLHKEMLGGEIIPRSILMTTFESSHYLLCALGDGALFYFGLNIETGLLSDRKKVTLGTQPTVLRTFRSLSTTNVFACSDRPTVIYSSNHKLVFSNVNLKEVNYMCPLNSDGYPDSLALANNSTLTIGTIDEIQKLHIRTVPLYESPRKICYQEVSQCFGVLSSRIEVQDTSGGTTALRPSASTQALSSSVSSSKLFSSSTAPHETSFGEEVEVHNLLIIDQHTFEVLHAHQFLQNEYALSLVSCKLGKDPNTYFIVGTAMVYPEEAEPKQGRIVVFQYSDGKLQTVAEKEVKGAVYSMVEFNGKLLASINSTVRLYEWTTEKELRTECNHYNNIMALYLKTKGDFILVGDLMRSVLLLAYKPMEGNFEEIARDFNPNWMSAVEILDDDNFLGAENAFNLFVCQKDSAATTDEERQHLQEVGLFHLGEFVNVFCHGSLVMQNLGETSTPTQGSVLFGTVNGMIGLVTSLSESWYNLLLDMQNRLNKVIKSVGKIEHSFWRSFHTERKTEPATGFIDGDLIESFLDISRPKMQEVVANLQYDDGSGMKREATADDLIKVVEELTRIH

As for `CO[C@H]1C[C@H](CN2CCC[C@@H](Oc3ccc4c(c3)CN(C3CCC(=O)NC3=O)C4=O)C2)C1` (stereo partly drawn) [Example 27, 3-(5-(((R)-1-(((1r,3R)-3-methoxycyclobutyl)methyl)piperidin-3-yl)oxy)-1-oxoisoindolin-2-yl)piperidine-2,6-dione], the remaining activity at 25 µM under setting [1] was found to be 60.3%. The Dmax at 25 µM under setting [2] was found to be 39.7%. The DC50 under setting [3] amounted to 130 nM.

For `O=C1CCC(N2Cc3cc(O[C@@H]4CCCN(C5COC5)C4)ccc3C2=O)C(=O)N1` (stereo partly drawn) [Example 12, 3-(5-(((R)-1-(oxetan-3-yl)piperidin-3-yl)oxy)-1-oxoisoindolin-2-yl)piperidine-2,6-dione], the remaining activity at 25 µM under setting [1] worked out at 68.5%. Moreover, under setting [2], the Dmax at 25 µM came out at 31.5%. Under setting [3], the DC50 worked out at 130 nM.

Regarding `CC#CCN1CCC[C@@H](Oc2ccc3c(c2)CN(C2CCC(=O)NC2=O)C3=O)C1` (stereo partly drawn) [Example 24, 3-(5-(((R)-1-(but-2-yn-1-yl)piperidin-3-yl)oxy)-1-oxoisoindolin-2-yl)piperidine-2,6-dione], under setting [1], the remaining activity at 25 µM came out at 47.3%. Further, the Dmax at 25 µM under setting [2] is 52.7%. Under setting [3], the DC50 came out at 10 nM.

With `CCO[C@@H]1C[C@@H](Oc2ccc3c(c2)CN(C2CCC(=O)NC2=O)C3=O)CN(C(C)C)C1` (stereo partly drawn) [Example 74, 3-(5-(((3R,5R)-5-ethoxy-1-isopropylpiperidin-3-yl)oxy)-1-oxoisoindolin-2-yl)piperidine-2,6-dione], the remaining activity at 25 µM under setting [1] was 21.9%. Besides, the Dmax at 25 µM under setting [2] was determined as 78.1%. Moreover, the DC50 under setting [3] was 8.9 nM.

Consider `O=C1CCC(N2Cc3cc(O[C@@H]4CCCN(CC#CC5CC5)C4)ccc3C2=O)C(=O)N1` (stereo partly drawn) [Example 25, 3-(5-(((R)-1-(3-cyclopropylprop-2-yn-1-yl)piperidin-3-yl)oxy)-1-oxoisoindolin-2-yl)piperidine-2,6-dione], for which the remaining activity at 25 µM under setting [1] is 50.2%. Besides, the Dmax at 25 µM under setting [2] stood at 49.8%. Further, the DC50 under setting [3] was found to be 7.5 nM.

Consider `CCN1CC[C@@H](F)[C@@H](Oc2ccc3c(c2)CN(C2CCC(=O)NC2=O)C3=O)C1` (relative stereo) [Example 57, 3-(5-(((3S*,4R*)-1-ethyl-4-fluoropiperidin-3-yl)oxy)-1-oxoisoindolin-2-yl)piperidine-2,6-dione], for which, under setting [4], the Dmax came to 16.9%. In addition, the remaining activity at 25 µM (HEK-293T, read-out: WIZ Amax) was found to be 83.1%. In addition, the DC50 under setting [3] is 170 nM.

`CC(=O)N1C[C@H](Oc2ccc3c(c2)CN(C2CCC(=O)NC2=O)C3=O)CC[C@@H]1C` (stereo partly drawn) [Example 86, 3-(5-(((3R,6S)-1-acetyl-6-methylpiperidin-3-yl)oxy)-1-oxoisoindolin-2-yl)piperidine-2,6-dione]: the remaining activity at 25 µM under setting [1] was determined as 76%. The Dmax at 25 µM under setting [2] was 24%. Further, the DC50 under setting [3] is greater than 25000 nM.

Consider `CCOC(=O)N1C[C@H](OCC)C[C@@H](Oc2ccc3c(c2)CN(C2CCC(=O)NC2=O)C3=O)C1` (stereo partly drawn) [Example 69, ethyl (3R,5R)-3-((2-(2,6-dioxopiperidin-3-yl)-1-oxoisoindolin-5-yl)oxy)-5-ethoxypiperidine-1-carboxylate], for which the remaining activity at 25 µM under setting [1] amounted to 106%. Also, the DC50 under setting [3] is greater than 25000 nM.

Turning to `CCN1CCC(C)(C)C(Oc2ccc3c(c2)CN(C2CCC(=O)NC2=O)C3=O)C1` (single isomer, unassigned) [Example 48, 3-(5-((1-ethyl-4,4-dimethylpiperidin-3-yl)oxy)-1-oxoisoindolin-2-yl)piperidine-2,6-dione], the remaining activity at 25 µM (HEK-293T, read-out: WIZ Amax) worked out at 102%. Further, the DC50 under setting [3] was greater than 25000 nM.

Take `CCO[C@@H]1C[C@@H](Oc2ccc3c(c2)CN(C2CCC(=O)NC2=O)C3=O)CN(S(C)(=O)=O)C1` (stereo partly drawn) [Example 71, 3-(5-(((3R,5R)-5-ethoxy-1-(methylsulfonyl)piperidin-3-yl)oxy)-1-oxoisoindolin-2-yl)piperidine-2,6-dione]: under setting [1], the remaining activity at 25 µM amounted to 39%. Further, the Dmax at 25 µM under setting [2] was determined as 61%. The DC50 under setting [3] was 45.3 nM.

As for `C[C@@H]1C[C@@H](Oc2ccc3c(c2)CN(C2CCC(=O)NC2=O)C3=O)CN(C)C1` (stereo partly drawn) [Example 75-2, 3-(5-(((3R,5R)-1,5-dimethylpiperidin-3-yl)oxy)-1-oxoisoindolin-2-yl)piperidine-2,6-dione], the Dmax under setting [4] amounted to 83.5%. Also, the remaining activity at 25 µM (HEK-293T, read-out: WIZ Amax) worked out at 16.5%. The DC50 under setting [3] came to 4 nM.

For `CC(C)N1CCC[C@@H](Oc2ccc3c(c2)CN(C2CCC(=O)NC2=O)C3=O)C1` (stereo partly drawn) [Example 9, 3-(5-(((R)-1-isopropylpiperidin-3-yl)oxy)-1-oxoisoindolin-2-yl)piperidine-2,6-dione], the Dmax (HEK-293T, read-out: % degradation of WIZ (100 − Amax), 100 − Amax) was 71.5%. In addition, where the note is “HEK-293T, read-out: WIZ Amax, DMSO-normalized, curve-fitted percentage of WIZ-HiBit remaining at 25 uM”, the remaining activity at 25 µM is 28.5%. Also, the DC50 under setting [3] was 4.2 nM.

Take `O=C1CCC(N2Cc3cc(O[C@@H]4CCCN(C5CC6(CCOCC6)C5)C4)ccc3C2=O)C(=O)N1` (stereo partly drawn) [Example 28, 3-(5-(((R)-1-(7-oxaspiro[3.5]nonan-2-yl)piperidin-3-yl)oxy)-1-oxoisoindolin-2-yl)piperidine-2,6-dione]: the remaining activity at 25 µM under setting [1] was 67.1%. For the same molecule, the Dmax at 25 µM under setting [2] was 32.9%. The DC50 under setting [3] came out at 84 nM.

For `O=C1CCC(N2Cc3cc(O[C@@H]4CCCN(C5CCCC5)C4)ccc3C2=O)C(=O)N1` (stereo partly drawn) [Example 42, 3-(5-(((R)-1-cyclopentylpiperidin-3-yl)oxy)-1-oxoisoindolin-2-yl)piperidine-2,6-dione], the remaining activity at 25 µM under setting [1] was 22.9%. The Dmax at 25 µM under setting [2] was determined as 77.1%. Also, the DC50 under setting [3] is 3.6 nM.

For `CCN1C[C@@H](F)C[C@@H](Oc2ccc3c(c2)CN(C2CCC(=O)NC2=O)C3=O)C1` (stereo partly drawn) [Example 59, 3-(5-(((3R,5S)-1-ethyl-5-fluoropiperidin-3-yl)oxy)-1-oxoisoindolin-2-yl)piperidine-2,6-dione], the Dmax under setting [4] amounted to 64.4%. Further, the remaining activity at 25 µM (HEK-293T, read-out: WIZ Amax) was 35.6%. In addition, the DC50 under setting [3] came out at 2.6 nM.

In the case of `CCN1C[C@@H](C)C[C@@H](Oc2ccc3c(c2)CN(C2CCC(=O)NC2=O)C3=O)C1` (mixture of isomers) [Example 45, rac-3-(5-(((3R,5S)-1-ethyl-5-methylpiperidin-3-yl)oxy)-1-oxoisoindolin-2-yl)piperidine-2,6-dione], under setting [4], the Dmax came to 43.7%. Besides, under “HEK-293T, read-out: WIZ Amax”, the remaining activity at 25 µM came to 56.3%. In addition, the DC50 under setting [3] came to 7.6 nM.

For `CCN1CCC[C@@H](Oc2ccc3c(c2)CN(C2CCC(=O)NC2=O)C3=O)[C@H]1C` (mixture of isomers) [Example 44, rac-3-(5-(((2R,3R)-1-ethyl-2-methylpiperidin-3-yl)oxy)-1-oxoisoindolin-2-yl)piperidine-2,6-dione], the Dmax under setting [4] is 15.8%. Besides, the remaining activity at 25 µM (HEK-293T, read-out: WIZ Amax) stood at 84.2%. For the same molecule, under setting [3], the DC50 is 60 nM.

For `CCn1cc(CN2CCC[C@@H](Oc3ccc4c(c3)CN(C3CCC(=O)NC3=O)C4=O)C2)cn1` (stereo partly drawn) [Example 14, 3-(5-(((R)-1-((1-ethyl-1H-pyrazol-4-yl)methyl)piperidin-3-yl)oxy)-1-oxoisoindolin-2-yl)piperidine-2,6-dione], under setting [4], the Dmax turned out to be 59.3%. Further, where the note is “HEK-293T, read-out: WIZ Amax”, the remaining activity at 25 µM is 40.7%. The DC50 (read-out: WIZ AC50; WIZ HiBit assay in 293T cells, about 18 hours, 10-point 5-fold dilution, top 25 μM) was 57 nM.

Consider `CCO[C@@H]1C[C@@H](Oc2ccc3c(c2)CN(C2CCC(=O)NC2=O)C3=O)CN(C(C)=O)C1` (stereo partly drawn) [Example 70, 3-(5-(((3R,5R)-1-acetyl-5-ethoxypiperidin-3-yl)oxy)-1-oxoisoindolin-2-yl)piperidine-2,6-dione], for which the remaining activity at 25 µM under setting [1] came out at 107%. In addition, the DC50 under setting [3] is greater than 25000 nM.
